# Entries after “also recorded” stand apart in the source; their conditions may differ. Like-named read-outs stand apart in the source and are kept apart here.
# B1: KG1a PSGL-1: P-selectin glycoprotein ligand-1 immunoprecipitated (4H10 moAb) from KG1a (protein, UniProt Q14242 42-412, looked up)
# P-selectin glycoprotein …: QATEYEYLDYDFLPETEPPEMLRNSTDTTPLTGPGTPESTTVEPAARRSTGLDAGGAVTELTTELANMGNLSTDSAAMEIQTTQPAATEAQTTQPVPTEAQTTPLAATEAQTTRLTATEAQTTPLAATEAQTTPPAATEAQTTQPTGLEAQTTAPAAMEAQTTAPAAMEAQTTPPAAMEAQTTQTTAMEAQTTAPEATEAQTTQPTATEAQTTPLAAMEALSTEPSATEALSMEPTTKRGLFIPFSVSSVTHKGIPMAASNLSVNYPVGAPDHISVKQCLLAILILALVATIFFVCTVVLAVRLSRKGHMYPVRNYSPTEMVCISSLLPDGGEGPSATANGGLSKAKSPGLTPEPREDREGDDLTLHSFLP
# modifications: KG1a cell glycoform
# notes: P-selectin glycoprotein ligand-1 immunoprecipitated (4H10 moAb) from KG1a
# Experiments:
# [1] = system: KG1a cells; test: Stamper-Woodruff lymphocyte adherence assay on KG1a cytospins (Example 9); format: cell-based, human; conditions: for L-selectin ligand Activity of KG1a Cells Following Protease or Phospholipase C Treatment, % Control Binding: enzymatic treatment of cells in suspension before cytocentrifugation
# [2] = system: CD43; test: Flow cytometry of sialic acid-dependent L60 epitope of CD43 on KG1a after neuraminidase; format: cell-based, human; conditions: KG1a cultured with the agent
# [3] = system: LN HEV; test: Lymphocyte adherence to frozen rat lymph node sections (LN HEV, positive control); format: cell-based
# Description: Lymphocyte Adherence Assay. […] Cytocentrifuge preparations of KG1a or other cell lines were made on a Cytospin 3 Cytocentrifuge (Shandon Lipshaw, Pittsburgh, Pa.). Frozen rat LN sections […] thick were mounted on slides, and lymphocyte binding to LN HEV served as a positive control in all experiments.
# Lymphocyte suspensions ([…]) were overlaid onto cytocentrifuge or LN sections in duplicate and placed on a rotating platform (80 rpm) at 4° C. for 30 minutes. Slides were then rinsed in cold PBS to remove non-adherent lymphocytes, fixed in 3% glutaraldehyde, and stained with methyl green-thionin. Slides were examined under the light microscope for adherence of lymphocytes to KG1a or LN HEV.
# [4] = system: E-selectin ligand activity on KG1a and HL-60 cells; test: Parallel-plate flow chamber: CHO-E cell rolling on fixed hematopoietic cell monolayers; format: cell-based, human; conditions: 2.8 dynes/cm^2, 3.8 dynes/cm^2
# [5] = biological target: T1, KG1a CD44 (Homo sapiens, UniProt P16070); test: CHO-E cell rolling over blotted or spotted KG1a membrane proteins / immunoprecipitated CD44; format: cell-based; conditions: 3.8 dynes/cm^2
# T1 construct: was immunoprecipitated from KG1a membrane protein (50 μg); endogenous in cells; host or cells: KG1a cells (membrane preparation, Hermes-1 immunoprecipitate)
# T1 sequence (P16070 21-361 isoform P16070-12 limits assumed): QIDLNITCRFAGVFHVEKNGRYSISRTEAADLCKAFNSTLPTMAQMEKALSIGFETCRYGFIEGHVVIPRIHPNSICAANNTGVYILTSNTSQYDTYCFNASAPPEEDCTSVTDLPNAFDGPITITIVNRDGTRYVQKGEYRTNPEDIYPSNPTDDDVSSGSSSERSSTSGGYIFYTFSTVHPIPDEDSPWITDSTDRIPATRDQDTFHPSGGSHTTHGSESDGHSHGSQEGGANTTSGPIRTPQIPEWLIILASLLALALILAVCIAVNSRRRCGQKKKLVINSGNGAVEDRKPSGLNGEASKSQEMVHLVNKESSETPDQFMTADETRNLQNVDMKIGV
# [6] = system: KG1a; test: Lymphocyte adherence assay on KG1a cytocentrifuge preparations (Examples 2-6); format: cell-based, human; conditions: for return of binding activity following desialylation: KG1a after neuraminidase
# [7] = biological target: T2, E-selectin (Homo sapiens, UniProt P16581); test: E-selectin ligand activity of immunoprecipitated proteins (CHO-E cell rolling); format: cell-based; conditions: for E-selectin-mediated CHO-E cell rolling on immunoprecipitated protein spotted onto plastic dishes: 3.8 dynes/cm^2
# T2 construct: expressed in transfected cells; host or cells: CHO cells (CHO-E)
# T2 sequence (P16581 22-610): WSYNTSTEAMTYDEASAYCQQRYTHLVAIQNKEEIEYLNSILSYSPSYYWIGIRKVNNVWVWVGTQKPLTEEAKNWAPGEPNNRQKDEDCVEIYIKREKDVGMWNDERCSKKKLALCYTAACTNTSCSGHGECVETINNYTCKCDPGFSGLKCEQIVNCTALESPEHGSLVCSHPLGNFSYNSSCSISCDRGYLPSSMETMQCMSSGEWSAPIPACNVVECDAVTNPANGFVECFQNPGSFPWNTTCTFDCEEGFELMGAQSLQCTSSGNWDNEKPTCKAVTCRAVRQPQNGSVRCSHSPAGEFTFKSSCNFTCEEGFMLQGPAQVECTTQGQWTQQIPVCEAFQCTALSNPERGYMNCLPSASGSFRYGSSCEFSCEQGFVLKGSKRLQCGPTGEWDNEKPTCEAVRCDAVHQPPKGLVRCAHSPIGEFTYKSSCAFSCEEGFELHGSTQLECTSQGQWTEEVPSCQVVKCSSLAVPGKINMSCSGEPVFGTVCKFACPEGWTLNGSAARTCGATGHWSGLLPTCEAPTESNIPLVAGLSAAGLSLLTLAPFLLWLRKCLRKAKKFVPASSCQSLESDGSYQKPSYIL
# [8] = system: KG1a; test: KG1a cell viability by trypan blue exclusion; format: cell-based, human; conditions: KG1a after the treatment
# [9] = 24 h culture with inhibitor after 1 h neuraminidase (0.1 U/ml), tunicamycin 15 μg/ml, deoxymannojirimycin 0.4 mg/ml, swainsonine 40 μg/ml
# [10] = inhibitor alone, 24 h, tunicamycin 15 μg/ml, deoxymannojirimycin 0.4 mg/ml, swainsonine 40 μg/ml
# [11] = LYMPHOCYTE TREATMENT, 1 mM EDTA, 10 mM mannose-6-P, 10 mg/ml PPME, 5 mg/ml fucoidin, 10 ng/ml PMA
# [12] = digestion then culture without inhibitor (neuraminidase 24 hour, bromelain 20 hour)
# [13] = 20 hr culture, no neuraminidase pretreatment, tunicamycin 15 ug/ml, cycloheximide 1.25 ug/ml
# [14] = after neuraminidase, 24 hr culture with chlorate 10 mM, 20 hr culture with tunicamycin 15 ug/ml or cycloheximide 1.25 ug/ml
molecule,measurement,setting,value
OC[C@H]1NC[C@@H](O)[C@@H](O)[C@@H]1O [Deoxymannojirimycin],% Control Adhesion,[1]; [9],22.5 % Control Adhesion
same,L-selectin ligand (HCELL) activity of KG1a / lymphocyte adherence (result in words),[1]; Stamper-Woodruff assay,markedly diminished
same,% Control Adhesion,[1]; [10],107.5 % Control Adhesion
same,return of the L60 epitope of CD43 after neuraminidase,[2],not inhibited
O=C(O)CN(CCN(CC(=O)O)CC(=O)O)CC(=O)O [EDTA],lymphocyte binding to LN control sections / LN HEV (result in words),[3],completely inhibited
same,E-selectin ligand activity (CHO-E cell rolling) on KG1a and HL-60 cells,[4],completely inhibited; also recorded: no activity
same,E-selectin ligand activity (CHO-E cell rolling) of KG1a membrane proteins / CD44 after treatment,[5],no evidence of E-selectin-mediated adhesive interactions; also recorded: prevented CHO-E rolling
same,L-selectin ligand (HCELL) activity of KG1a / lymphocyte adherence (result in words),[1],complete elimination
same,lymphocyte binding to KG1a (result in words),[6],completely inhibited
same,"Lymphocyte Adherence to KG1a, Mean of Binding (% of untreated control)",[6]; [11],0.3 % of Untreated Control
BMEC CD44: CD44 immunoprecipitated from human bone marrow endothelial cells,E-selectin ligand activity of immunoprecipitated CD44,"[7]; human bone marrow endothelial cells, Hermes-1 immunoprecipitate",did not possess any E-selectin ligand activity
"Neuraminidase: neuraminidase (sialidase), V. cholerae, Boehringer Mannheim",lymphocyte binding to LN control sections / LN HEV (result in words),[3],abrogated binding
same,E-selectin ligand activity (CHO-E cell rolling) on KG1a and HL-60 cells,[4],no activity
same,E-selectin ligand activity (CHO-E cell rolling) of KG1a membrane proteins / CD44 after treatment,[5],markedly ablated CHO-E cell rolling
same,Cell viability (trypan blue exclusion),[8],> 99%
same,% Control Adhesion,[1]; Neuraminidase 1 h then 24 h recovery,99.3 % Control Adhesion
same,% Control Adhesion,"[1]; Neuraminidase (1 h), 0.1 U/ml",1.0 % Control Adhesion
same,Mean % Control Binding,[1]; [12],101.3 % Control Binding
same,Mean % Control Binding,"[1]; t = 0, no culture",0.2 % Control Binding
same,lymphocyte binding to KG1a (result in words),[6],abrogated binding
same,"Lymphocyte Adherence to KG1a, Mean of Binding (% of untreated control)",[6]; KG1A TREATMENT,3.1 % of Untreated Control
same,"Lymphocyte Adherence to KG1a, Mean of Binding (% of untreated control)","[6]; KG1a treatment, t = 0, no culture",0.02 % of untreated control
same,"Lymphocyte Adherence to KG1a, Mean of Binding (% of untreated control)",[6]; neuraminidase then 24 hr culture,101.3 % of untreated control
"O=C[C@@H](O)[C@@H](O)[C@H](O)[C@H](O)COP(=O)(O)O [Mannose-6-P, D-mannose-6-phosphate]",lymphocyte binding to LN control sections / LN HEV (result in words),[3],inhibited
same,lymphocyte binding to KG1a (result in words),[6],inhibited
same,"Lymphocyte Adherence to KG1a, Mean of Binding (% of untreated control)",[6]; [11],5.7 % of Untreated Control
Bromelain,lymphocyte binding to LN control sections / LN HEV (result in words),[3],abrogated binding
same,L-selectin ligand (HCELL) activity of KG1a / lymphocyte adherence (result in words),[1]; Stamper-Woodruff assay,completely abrogates
same,Mean % Control Binding,[1]; [12],95.2 % Control Binding
same,"L-selectin ligand Activity of KG1a Cells Following Protease or Phospholipase C Treatment, % Control Binding",[1],3.8 % Control Binding
same,Mean % Control Binding,"[1]; t = 0, no culture",3.8 % Control Binding
same,lymphocyte binding to KG1a (result in words),[6],abrogated binding
same,"Lymphocyte Adherence to KG1a, Mean of Binding (% of untreated control)",[6]; KG1A TREATMENT,3.8 % of Untreated Control
Tunicamycin,% Control Adhesion,[1]; [9],1.0 % Control Adhesion
same,L-selectin ligand (HCELL) activity of KG1a / lymphocyte adherence (result in words),[1]; Stamper-Woodruff assay,completely prevented ligand re-expression
same,% Control Adhesion,[1]; [10],96.5 % Control Adhesion
same,"Lymphocyte Adherence to KG1a, Mean of Binding (% of untreated control)",[6]; [13],106.2 % of untreated control
same,return of binding activity following desialylation,[6],blocked
same,"Lymphocyte Adherence to KG1a, Mean of Binding (% of untreated control)",[6]; [14],0.4 % of untreated control
same,return of the L60 epitope of CD43 after neuraminidase,[2],not inhibited
O=S(=O)(F)Cc1ccccc1 [PMSF],lymphocyte binding to KG1a (result in words),[6],prevented chymotrypsin effects
Fucoidin,lymphocyte binding to LN control sections / LN HEV (result in words),[3],inhibited
same,lymphocyte binding to KG1a (result in words),[6],inhibited
same,"Lymphocyte Adherence to KG1a, Mean of Binding (% of untreated control)",[6]; [11],1.4 % of Untreated Control
"KG1a CD44: HECA-452-reactive CD44 glycoform of KG1a, hematopoietic cell E-selectin/L-selectin ligand",E-selectin-mediated CHO-E cell rolling on immunoprecipitated protein spotted onto plastic dishes,[7],rolling was observed
Chymotrypsin,lymphocyte binding to LN control sections / LN HEV (result in words),[3],abrogated binding
same,L-selectin ligand (HCELL) activity of KG1a / lymphocyte adherence (result in words),[1]; Stamper-Woodruff assay,completely abrogates
same,"L-selectin ligand Activity of KG1a Cells Following Protease or Phospholipase C Treatment, % Control Binding",[1],6.7 % Control Binding
same,lymphocyte binding to KG1a (result in words),[6],abrogated binding
same,"Lymphocyte Adherence to KG1a, Mean of Binding (% of untreated control)",[6]; KG1A TREATMENT,6.7 % of Untreated Control
O[C@H]1[C@H]2[C@H](O)CCCN2C[C@H]1O [Swainsonine],% Control Adhesion,[1]; [9],26.6 % Control Adhesion
same,L-selectin ligand (HCELL) activity of KG1a / lymphocyte adherence (result in words),[1]; Stamper-Woodruff assay,markedly diminished
same,% Control Adhesion,[1]; [10],95.5 % Control Adhesion
same,return of the L60 epitope of CD43 after neuraminidase,[2],not inhibited
C[C@@H]1C[C@@H]([C@H](O)CC2CC(=O)NC(=O)C2)C(=O)[C@@H](C)C1 [Cycloheximide],Mean % Control Binding,"[1]; 20 hour culture with cycloheximide 1.25 μg/ml, no neuraminidase or bromelain digestion",91.8 % Control Binding
same,Mean % Control Binding,"[1]; after bromelain, 20 hour culture with cycloheximide 1.25 μg/ml",0.6 % Control Binding
same,Mean % Control Binding,"[1]; after neuraminidase, 20 hour culture with cycloheximide 1.25 μg/ml",0.5 % Control Binding
same,"Lymphocyte Adherence to KG1a, Mean of Binding (% of untreated control)",[6]; [13],91.8 % of untreated control
same,return of binding activity following desialylation,[6],blocked
same,"Lymphocyte Adherence to KG1a, Mean of Binding (% of untreated control)",[6]; [14],0.5 % of untreated control
Human Neutrophil Elastase: protease,L-selectin ligand (HCELL) activity of KG1a / lymphocyte adherence (result in words),[1]; Stamper-Woodruff assay,partially affects activity
same,"L-selectin ligand Activity of KG1a Cells Following Protease or Phospholipase C Treatment, % Control Binding",[1],25.4 % Control Binding
CC(C)C[C@H](NC(=O)[C@@H](NC(=O)N[C@@H](Cc1ccccc1)C(=O)O)[C@@H]1CCN=C(N)N1)C(=O)N[C@H](C=O)Cc1ccccc1 [chymostatin],lymphocyte binding to KG1a (result in words),[6],prevented chymotrypsin effects
B1,E-selectin-mediated CHO-E cell rolling on immunoprecipitated protein spotted onto plastic dishes,[7],no binding was observed
same,CHO-E rolling on immunoprecipitated protein,[7]; lower shear force of 0.6 dynes/cm^2,did occur
